The target of series [1] is T1, Cytochrome P450 2A6 (Homo sapiens, UniProt P11509).
T1 sequence (P11509 whole entry): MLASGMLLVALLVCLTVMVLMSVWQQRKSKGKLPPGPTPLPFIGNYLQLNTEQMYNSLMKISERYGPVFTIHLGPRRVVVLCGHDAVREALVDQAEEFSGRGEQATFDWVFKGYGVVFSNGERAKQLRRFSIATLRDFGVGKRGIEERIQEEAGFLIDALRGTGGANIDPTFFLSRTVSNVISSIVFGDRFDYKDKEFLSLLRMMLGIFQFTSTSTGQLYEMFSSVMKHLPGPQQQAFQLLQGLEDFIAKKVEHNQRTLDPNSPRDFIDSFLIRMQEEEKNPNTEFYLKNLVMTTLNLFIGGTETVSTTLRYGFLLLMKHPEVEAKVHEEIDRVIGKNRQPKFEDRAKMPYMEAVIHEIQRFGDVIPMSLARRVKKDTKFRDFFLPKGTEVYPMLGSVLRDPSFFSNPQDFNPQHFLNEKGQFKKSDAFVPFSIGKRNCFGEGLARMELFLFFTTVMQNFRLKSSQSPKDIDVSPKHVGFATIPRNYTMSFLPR
As to the kind of experiment: Activity of human recombinant CYP2A6 expressed in microsomes isolated from human AHH-1 cells assessed as enzyme-mediated 1-(2-(2,4-dimethylphenylsulfinyl)phenyl)piperazine formation at 8 to 50 uM after 120 mins by HPLC/MS-MS analysis in presence of NADPH regenerating system with NADP+. The format is ADME, cell-free. The following applies: 2 h.

In series [2] the target is T2, Cytochrome P450 2B6 (Homo sapiens, UniProt P20813).
T2 sequence (P20813 whole entry): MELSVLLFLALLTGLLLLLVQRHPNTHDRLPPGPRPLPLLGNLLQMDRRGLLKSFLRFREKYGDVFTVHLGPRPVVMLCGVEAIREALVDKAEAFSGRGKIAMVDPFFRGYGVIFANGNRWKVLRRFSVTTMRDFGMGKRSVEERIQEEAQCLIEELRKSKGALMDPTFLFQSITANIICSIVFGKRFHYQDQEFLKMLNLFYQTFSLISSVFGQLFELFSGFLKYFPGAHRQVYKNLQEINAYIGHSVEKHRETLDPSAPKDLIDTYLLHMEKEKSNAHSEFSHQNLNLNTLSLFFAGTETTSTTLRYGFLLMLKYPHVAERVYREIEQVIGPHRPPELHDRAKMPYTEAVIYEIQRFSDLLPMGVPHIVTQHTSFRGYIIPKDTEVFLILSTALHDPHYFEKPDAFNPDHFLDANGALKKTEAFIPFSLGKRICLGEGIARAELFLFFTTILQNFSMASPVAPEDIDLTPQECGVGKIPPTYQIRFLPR
The series is described as follows: Activity of human recombinant CYP2B6 expressed in microsomes isolated from human AHH-1 cells assessed as enzyme-mediated 4-(2-(2,4-dimethylphenylthio)phenyl)piperazin-1-ol formation at 8 to 50 uM after 120 mins by HPLC/MS-MS analysis in presence of NADPH regenerating system with NADP+. The following applies: 2 h. The class given is ADME, cell-free.

The subject of series [3] is Liver microsome. As to the kind of experiment: Drug metabolism in pooled human liver microsomes assessed as formation of (3-methyl-4-(2-(piperazin-1-yl)phenylthio)phenyl)methanol per mg of protein after 30 mins by Michaelis-Menten plot analysis in presence of NADPH regenerating system with NADP+. The class given is ADME. To be noted: 0.5 h. In general terms: Microsomes from liver hold many membrane-bound enzymes, among them those of drug oxidation.

The test system of series [4] is Liver microsome. The series is described as follows: Intrinsic clearance in pooled human liver microsomes assessed as Vmax(app)/Km(app) for formation of (3-methyl-4-(2-(piperazin-1-yl)phenylthio)phenyl)methanol per mg of protein after 30 mins by Michaelis-Menten plot analysis in presence of NADPH regenerating system with NADP+. The format is ADME. The following applies: 0.5 h.

For series [5], the target named is Cytochrome P450 2C9 (Homo sapiens, UniProt P11712). As to the kind of experiment: Activity of human recombinant CYP2C9 expressed in microsomes isolated from human AHH-1 cells assessed as enzyme-mediated 3-(2,4-dimethylphenylthio)-4-(piperazin-1-yl)phenol formation at 8 to 50 uM after 120 mins by HPLC/MS-MS analysis in presence of NADPH regenerating system with NADP+. The format is ADME, cell-free. To be noted: 2 h.

Series [6] deals with Cytochrome P450 3A4 (Homo sapiens, UniProt P08684). As to the kind of experiment: Activity of human recombinant CYP3A4 expressed in microsomes isolated from human AHH-1 cells assessed as enzyme-mediated 3-(2,4-dimethylphenylthio)-4-(piperazin-1-yl)phenol formation at 8 to 50 uM after 120 mins by HPLC/MS-MS analysis in presence of NADPH regenerating system with NADP+. The format is ADME, cell-free. To be noted: 2 h.

For series [7], the target named is T3, Flavin-containing monooxygenase 3 (Homo sapiens, UniProt P31513).
T3 sequence (P31513 whole entry): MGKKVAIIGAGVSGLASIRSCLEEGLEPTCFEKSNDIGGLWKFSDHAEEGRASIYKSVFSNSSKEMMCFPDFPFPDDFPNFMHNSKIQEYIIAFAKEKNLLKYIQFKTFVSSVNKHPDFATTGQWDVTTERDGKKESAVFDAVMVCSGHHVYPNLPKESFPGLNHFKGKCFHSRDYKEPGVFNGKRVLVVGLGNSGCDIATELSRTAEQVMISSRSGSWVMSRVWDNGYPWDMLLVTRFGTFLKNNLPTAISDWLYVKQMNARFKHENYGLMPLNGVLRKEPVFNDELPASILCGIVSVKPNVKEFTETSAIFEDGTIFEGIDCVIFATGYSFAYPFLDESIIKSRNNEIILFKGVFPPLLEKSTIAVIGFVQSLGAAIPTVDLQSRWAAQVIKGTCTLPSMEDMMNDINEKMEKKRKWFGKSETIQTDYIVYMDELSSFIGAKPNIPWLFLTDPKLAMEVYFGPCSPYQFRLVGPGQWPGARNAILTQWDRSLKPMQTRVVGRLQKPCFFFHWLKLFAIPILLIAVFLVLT
The series is described as follows: Activity of human recombinant FMO3 expressed in microsomes isolated from baculovirus infected insect BTI-TN-5B1-4 cells assessed as enzyme-mediated 3-(2,4-dimethylphenylthio)-4-(piperazin-1-yl)phenol formation at 8 to 50 uM after 120 mins by HPLC/MS-MS analysis in presence of NADPH regenerating system with NADP+. The format is ADME. The following applies: 2 h.

Series [8] relates to Liver microsome. The series is described as follows: Drug metabolism in phenotyped human liver microsomes assessed as formation of (3-methyl-4-(2-(piperazin-1-yl)phenylthio)phenyl)methanol at 8 to 50 uM after 60 mins by HPLC/MS-MS analysis in presence of NADPH regenerating system with NADP+. The class given is ADME. To be noted: 1 h.
In series [9] the test system is Liver microsome. The series is described as follows: Drug metabolism in phenotyped human liver microsomes assessed as formation of 1-(2-(2,4-dimethylphenylsulfinyl)phenyl)piperazine at 8 to 50 uM after 60 mins by HPLC/MS-MS analysis in presence of NADPH regenerating system with NADP+. To be noted: 1 h. The class given is ADME.
In series [10] the test system is Liver microsome. As to the kind of experiment: Drug metabolism in phenotyped human liver microsomes assessed as formation of 3-(2,4-dimethylphenylthio)-4-(piperazin-1-yl)phenol at 8 to 50 uM after 60 mins by HPLC/MS-MS analysis in presence of NADPH regenerating system with NADP+. The class given is ADME. The following applies: 1 h.
The target in series [11] is Cytochrome P450 2C19 (Homo sapiens, UniProt P33261). As to the kind of experiment: Activity of human recombinant CYP2C19 expressed in microsomes isolated from human AHH-1 cells assessed as enzyme-mediated (3-methyl-4-(2-(piperazin-1-yl)phenylthio)phenyl)methanol formation at 8 to 50 uM after 120 mins by HPLC/MS-MS analysis in presence of NADPH regenerating system with NADP+. The following applies: 2 h. The class given is ADME, cell-free.
Cytochrome P450 2C19, sequence (P33261 whole entry): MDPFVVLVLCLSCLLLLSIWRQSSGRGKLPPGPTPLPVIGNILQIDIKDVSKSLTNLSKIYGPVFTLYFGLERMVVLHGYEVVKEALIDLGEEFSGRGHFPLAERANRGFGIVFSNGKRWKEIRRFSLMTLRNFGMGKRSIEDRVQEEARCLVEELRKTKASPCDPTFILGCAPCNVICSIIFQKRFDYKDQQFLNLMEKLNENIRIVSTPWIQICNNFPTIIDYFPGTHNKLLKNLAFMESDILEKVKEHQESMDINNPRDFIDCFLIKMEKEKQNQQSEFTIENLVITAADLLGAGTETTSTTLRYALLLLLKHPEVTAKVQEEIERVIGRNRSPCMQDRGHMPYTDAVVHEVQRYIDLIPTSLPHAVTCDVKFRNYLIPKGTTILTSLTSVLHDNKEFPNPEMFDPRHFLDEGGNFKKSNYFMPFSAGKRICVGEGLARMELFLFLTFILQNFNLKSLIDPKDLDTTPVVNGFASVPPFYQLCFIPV

Cytochrome P450 2C9, sequence (P11712 whole entry): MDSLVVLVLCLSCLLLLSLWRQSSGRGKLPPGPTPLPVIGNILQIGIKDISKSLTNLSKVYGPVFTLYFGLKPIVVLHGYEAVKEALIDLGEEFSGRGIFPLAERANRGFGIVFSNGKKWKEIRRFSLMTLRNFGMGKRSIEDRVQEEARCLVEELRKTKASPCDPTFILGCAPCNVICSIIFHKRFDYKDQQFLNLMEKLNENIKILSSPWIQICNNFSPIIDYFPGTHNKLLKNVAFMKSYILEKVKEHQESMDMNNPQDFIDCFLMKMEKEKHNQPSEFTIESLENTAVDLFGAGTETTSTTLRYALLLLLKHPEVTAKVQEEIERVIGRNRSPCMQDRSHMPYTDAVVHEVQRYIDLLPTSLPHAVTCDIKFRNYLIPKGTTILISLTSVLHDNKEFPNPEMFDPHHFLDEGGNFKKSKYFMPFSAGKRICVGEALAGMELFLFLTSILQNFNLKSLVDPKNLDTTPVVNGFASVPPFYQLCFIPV
Cytochrome P450 3A4, sequence (P08684 whole entry): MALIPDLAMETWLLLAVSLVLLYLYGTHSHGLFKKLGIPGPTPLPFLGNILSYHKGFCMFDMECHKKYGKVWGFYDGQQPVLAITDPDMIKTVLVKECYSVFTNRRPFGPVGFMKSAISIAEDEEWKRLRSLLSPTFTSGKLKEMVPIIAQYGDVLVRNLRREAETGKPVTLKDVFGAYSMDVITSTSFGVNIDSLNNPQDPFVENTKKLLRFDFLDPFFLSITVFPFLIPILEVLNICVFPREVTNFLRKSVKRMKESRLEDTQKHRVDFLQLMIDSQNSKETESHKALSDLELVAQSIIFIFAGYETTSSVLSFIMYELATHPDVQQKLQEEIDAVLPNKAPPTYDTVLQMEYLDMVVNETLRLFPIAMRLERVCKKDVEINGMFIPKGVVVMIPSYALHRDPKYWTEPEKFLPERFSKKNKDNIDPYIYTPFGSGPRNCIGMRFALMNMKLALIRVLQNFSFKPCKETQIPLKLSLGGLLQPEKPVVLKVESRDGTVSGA

Turning to `Br.Cc1ccc(Sc2ccccc2N2CCNCC2)c(C)c1` [VORTIOXETINE HYDROBROMIDE], the Drug metabolism result is “metabolite_detected” in [1]; “metabolite_detected” in series [2]; “metabolite_detected” in [5]; “metabolite_not_detected” in series [6]; “metabolite_not_detected” in series [7]; “metabolite_detected” in [8]. For the same compound, the Drug metabolism entry in [9], in [10] and in [11] was “metabolite_detected” each time. Moreover, the “Vmax(app)” value in series [3] worked out at 262 pmol/min. Further, the Vmax/Km in series [4] is 1.13 µL/min.

These data come from ChEMBL document CHEMBL3525899, “Identification of the cytochrome P450 and other enzymes involved in the in vitro oxidative metabolism of a novel antidepressant, Lu AA21004” (Drug Metab Dispos, 2012).
